According to US20070014788A1, “Laminin-5 modulators and uses thereof” (Novo Nordisk A/S, priority 2004, published 2007):

B1: TRAIL: TNF-related apoptosis-inducing ligand (protein, UniProt P50591 1-281, looked up)
Tumor necrosis factor ligand …: MAMMEVQGGPSLGQTCVLIVIFTVLLQSLCVAVTYVYFTNELKQMQDKYSKSGIACFLKEDDSYWDPNDEESMNSPCWQVKWQLRQLVRKMILRTSEETISTVQEKQQNISPLVRERGPQRVAAHITGTRGRSNTLSSPNSKNEKALGRKINSWESSRSGHSFLSNLHLRNGELVIHEKGFYYIYSQTYFRFQEEIKENTKNDKQMVQYIYKYTSYPDPILLMKSARNSCWSKDAEYGLYSIYQGGIFELKENDRIFVSVTNEHLIDMDHEASFFGAFLVG

test system: SW480 cells; assay: Cell death (LDH release) of transfected SW480 cells, alone and with anti-cancer compounds; assay type: cell-based; details: low dose of compound, 24 hours
Procedure: SW480 cells obtained from ATCC were grown in DME:F12 supplemented with 10% foetal calf serum and routinely checked for being mycoplasma free. For transfection, the cells were seeded as 3×10^5 cells/2 ml in 6 well plates. Transfection was carried out after cells have attached at least overnight using Lipofectamin 2000 (Life Technologies). Liposomes were formed in medium without serum by mixing 10 μl lipofectamine 2000 and 3 μg plasmid DNA or 15 μl 20 pmol/μl oligonucleotide in a total volume of 250 μl. After liposome formation, the mixture was added to cells and incubated 5 hours in cell incubator before medium was changed to complete medium with serum. After 24 hours, cells were trypsinised and moved to 96 well plates to analyse for death induction.
The cells were allowed to plate for 24 hours before dosing with the indicated compounds, all in triplicate. The compounds were solubilised in DMSO and added to cells in medium with no more than 0.1% v/v DMSO. Triplicate cell cultures for basal cell death (untreated) and maximal response (complete lysis) were included as well as triplicate media samples for background determination. Cells were incubated for additional 24 hours. The maximal response (100% cell death) was induced by adding 1% v/v Triton X100 to triplicate cell cultures 5 min before medium was collected for detection of lactate dehydrogenase (LDH) activity. Medium from all samples were used in the detection of LDH using a kit from Takara Bio Inc.

Molecule | effect of added compound on the increased cell death by siRNA against gamma2
CN[C@@H]1C[C@H]2O[C@@](C)([C@@H]1OC)n1c3ccccc3c3c4c(c5c6ccccc6n2c5c31)C(=O)NC4 [staurosporine] | did not attenuate
C/C=C(/C)C(=O)O[C@H]1C(C)=C2[C@H]([C@@H]1OC(=O)CCCCCCC)[C@@](C)(OC(C)=O)C[C@H](OC(=O)CCC)[C@@]1(O)[C@H]2OC(=O)[C@@]1(C)O [thapsigargin] | did not attenuate
tunicamycin | did not attenuate
B1 | did not attenuate
